Values quoted from earlier work, collected in patent US20030203881A1, “Method of treating neurologic disorders” (priority 2000, published 2003).

Tests used:
[1] = test system: microglial response; conditions: experimental model of stroke, around stroke lesions
[2] = test system: neurons; conditions: tissue culture
[3] = test system: inflammatory cells; conditions: EAE
[4] = test system: patients with mild and moderate arthritis
[5] = test system: osteoarthritis in dog models; conditions: prophylactic administration

SMILES	microglial response in the area surrounding areas of brain ischemia [1]	protection of neurons against death [2]	invasion of inflammatory cells into the CNS [3]	efficacy in patients with arthritis [4]	safety in patients with arthritis [4]	severity of osteoarthritis [5]
CN(C)c1ccc(O)c2c1C[C@H]1C[C@H]3[C@H](N(C)C)C(=O)C(C(N)=O)=C(O)[C@@]3(O)C(=O)C1=C2O [minocycline]	reduced the microglial response	protects neurons against death	prevents the invasion of inflammatory cells into the CNS	effective	safe	
C[C@H]1c2cccc(O)c2C(=O)C2=C(O)[C@]3(O)C(=O)C(C(N)=O)=C(O)[C@@H](N(C)C)[C@@H]3[C@@H](O)[C@@H]21 [doxycycline]						markedly reduced the severity of osteoarthritis
